Experiment [1] in a line: Tasting in mango juice drink, 1% clear mango juice. The note with it: 8% sucrose, 0.1% citric acid, mango flavour 0.05%. How it is done: Comparison in a Mango Juice Drink
Base is 8% sucrose, 0.1% citric acid, 1% clear mango juice, and a proprietary mango flavour at 0.05%.
(§1) Samples were evaluated by expert tasters. Tasters were asked to describe the samples focusing on authentic taste, mouthfeel, fullness, salty-ness, salivation, umami, sweetness, juiciness, richness, long lastingness and fattiness.
Base is water, 8% sucrose, 0.1% citric acid, 1% clear mango juice, proprietary mango flavour @ 0.05%
(§2) Samples were evaluated by expert tasters. Tasters were asked to describe the samples focusing on authentic taste, mouthfeel, fullness, salivation, salty-ness, umami, sweetness, juiciness, richness, long lastingness and fattiness.
Base is water, 8% sucrose, 0.1% citric acid, 1% clear mango juice, proprietary mango flavour @0.05%
(§3) Samples were evaluated by expert tasters. Tasters were asked to describe the samples focusing on authentic taste, mouthfeel, fullness, salty-ness, salivation, umami, sweetness, juiciness, richness, long lastingness and fattiness
Base is 8% sucrose, 0.1% citric acid, 1% clear mango juice, proprietary mango flavour @ 0.05%
(§4) Samples were evaluated by expert tasters. Tasters were asked to describe the samples focusing on authentic taste, mouth feel, fullness, salivation, salty-ness, umami, sweetness, juiciness, richness, long lastingness and fattiness
Base is water, 8% sucrose, 0.1% citric acid, 1% clear mango juice, proprietary mango flavour @ 0.05%.
Test in a Mango Juice Drink

The nature of experiment [2]: Tasting in strawberry drink. Conditions: 7% sucrose, 0.1% citric acid, strawberry flavour 0.015%. How it is done:
(§5) Samples were prepared and evaluated by expert tasters. Tasters were asked to describe the samples focusing on authentic taste, mouthfeel, fullness, salty-ness, salivation, umami, sweetness, juiciness, richness, long lastingness and fattiness.
Comparison in a Strawberry Drink
Base is 7% sucrose, 0.1% citric acid, and a proprietary strawberry flavour @ 0.015%
as §1
Base is water, 7% sucrose, 0.1% citric acid, proprietary strawberry flavour @ 0.015%
as §2
Test in a Strawberry Drink
Base is 7% sucrose, 0.1% citric acid, proprietary strawberry flavour @ 0.015%

Experiment [3] is described as follows: Tasting in vanilla milk 0.15% fat. Conditions: 1 ppm, 4% sucrose, Vaniline 10 ppm + vanilla extract 0.03%. Here is the method:
as §5
Base: Milk 0.15% fat, sweetened with 4% sucrose by weight, flavoured with proprietary
Vaniline flavour @ 10 ppm+Vanilla ext. @ 0.03%
as §1
Comparison in a Vanilla Milk Drink
Vaniline @ 10 ppm+Vanilla extract @ 0.03%
Base: Milk 0.15% fat, sweetened with 4% sucrose by weight, flavoured with proprietary Vaniline @ 10 ppm+Vanilla extract @ 0.03%

Experiment [4] is described as follows: Tasting in Maggi beef bouillon. Conditions: Maggi beef bouillon 1 tablet in 500 ml of hot water. How it is done: as §5
Comparison in Beef Bouillon
Base is Maggi beef bouillon 1 tablet in 500 ml of hot water
as §1, §2, §3, §4

A short description of experiment [5]: Test in orange beverage. Conditions: 1 ppm; water, 7% sugar (8% sucrose elsewhere in the source), 0.1% citric acid, orange flavour 0.06%. Here is the method: as §1
Base is water, 7% sugar, 0.1% citric acid, proprietary orange flavour @ 0.06%.
as §3
Base is water, 7% sugar, 0.1% citric acid, proprietary orange flavour @ 0.06%
as §4
Samples were evaluated by expert tasters. Tasters were asked to describe the samples focusing on authentic taste, mouthfeel, fullness, salivation, sweetness, juiciness, richness, long lastingness and fattiness
Comparison in an Orange Drink
Base: water, 8% sucrose, 0.1% citric acid, proprietary orange flavour @ 0.06%.

Experiment [6] is described as follows: Tasting in strawberry flavoured sugar sweetened yoghurt. Conditions: 2 ppm, 1.5% fat yoghurt, 8% sucrose, strawberry flavour 0.015%. Here is the method: Strawberry Flavoured Sugar Sweetened Yoghurt
In a 1.5% fat yoghurt base, sweetened with 8% sucrose by weight, flavoured with a proprietary strawberry flavour @ 0.015% several different N-acyl aminoacids were added.
as §5
Test in a Strawberry Yoghurt
Base: Yoghurt 1.5% fat yoghurt, 8% sucrose, proprietary strawberry flavour @ 0.015%
as §2

Experiment [7] is described as follows: Tasting in beef bouillon base. The note with it: 0.5 PPM in beef bouillon base 1.0% salt, 0.5% fat. Here is the method: (§6) The following formulations were prepared and tasted by trained panelists.
Beef Bouillon base 1.0% salt, 0.5% fat

Experiment [8] can be described thus: Test in peach flavoured drink. Conditions: 1 ppm; water, 8% sugar, 0.1% citric acid, peach flavour 0.05%. Here is the method:
as §5
Test in Peach Flavoured Drink:
Base is water, 8% sugar, 0.1% citric acid, and proprietary peach flavour at 0.05%
as §1
Comparison in a Peach Drink
Base is water, 8% sugar, 0.1% citric acid, proprietary peach flavour at 0.05%
as §2

Experiment [9] in a line: Tasting in chicken bouillon. The note with it: 0.7% salt, 0.5% fat. How it is done: as §6
Standard Chicken bouillon base, 0.7% salt, 0.5% fat
Samples were prepared and evaluated by expert tasters. Tasters were asked to describe the samples focusing on authentic taste, mouthfeel, fullness, salivation, salty-ness, umami, sweetness, juiciness, richness, long lastingness and fattiness.
Test in Soups and Bouillons
Standard Chicken Bouillon Base

Setting [10] is: 0.2 PPM in chicken bouillon base.

For `CCCCCC/C=C\CCCCCCCC(=O)NC(CCC(=O)O)C(=O)O` (stereo not drawn) [C16:1-glu, N-palmitenoyl-Glu], the tasting result is “full, heavy, jammy, long lasting” in experiment [1] (1 ppm); “full, fatty, creamy” in [2] (0.5 ppm); “full, fatty, creamy, sweet vanilla” in [3].
With `CCCCCCCCCCCCCCCC(=O)NC(CCSC)C(=O)O` (stereo not drawn) [C16:0-met, N-palmitoyl-Met], the tasting result in experiment [1] (1 ppm) is listed as “fatty, full body, juicy, metallic”; in experiment [4] (1 ppm), “salty, full, nice salivating, lingering”; in experiment [5], “slightly metallic, fresh”.
Consider `CCCCCCCC(=O)NC(CCSC)C(=O)O` (stereo not drawn) [C8:0-met], for which the tasting result in [1] (1 ppm) is “green fresh, no additional body”; in experiment [4] (1 ppm) it was “more salty, no additional fullness”.
`CCCCCCCCCCCCCCCCCC(=O)NC(CCC(N)=O)C(=O)O` (stereo not drawn) [C18:0-gln, N-stearoyl-Gln]: in experiment [6], the tasting result is “Sweet full juicy, nice, slight enhanced sulphury”.
As for `CCCCC/C=C\C/C=C\CCCCCCCC(=O)N[C@H](C(=O)O)C(C)C` [C18:2-val, N-linoleoyl-L-valine], the tasting result in experiment [7] is “more body and mouthfeel, more umami”; in experiment [1] (1 ppm), “ripe, very juicy nice, full body, long lasting”; in experiment [4] (1 ppm), “more umami, salivating, salty”.
As to `CCCCCCCC/C=C\CCCCCCCC(=O)N[C@H](C(=O)O)C(C)C` [C18:1-val, N-oleoyl-L-valine], the tasting result in [8] was “tropical, fatty, skin, juicy”.
With `CCCCCCCCCC(=O)NC1(C(=O)O)CC1` [C10:0 ACCA, N-decanoyl 1-amino-cyclopropyl carboxylic acid], the tasting result in [9] (setting [10]) is given as “More umami lingering body”; in [9] (0.5 PPM in chicken bouillon base), “Nice strong salty, Umami lingering body, better chicken profile”.
For the compound `CCCCCCCC/C=C\CCCCCCCC(=O)NCCC(=O)O` [C18:1-beta ala], the tasting result in experiment [1] (2 ppm) is on record as “more juicy, longlasting”; in [4] (2 ppm), “more salty salivating umami”.
The like results for `CCCCCCCCCCCCCCCC(=O)NCCC(=O)O` [C16:0-beta ala] were, in that order, “more juicy” and “more salty salivating umami”.
Regarding `CCCCCC/C=C\CCCCCCCC(=O)NCCCC(=O)O` [C16:1-gaba], the tasting result in experiment [1] (2 ppm) is given as “juicy, rich, full authentic”; in experiment [2] (2 ppm), “juicy, fruity, fatty, long lasting, good mouthfeel”.
As to `CCCCC/C=C\C/C=C\CCCCCCCC(=O)NC1(C(=O)O)CC1` [C18:2 ACCA, N-linoleoyl 1-amino-cyclopropyl carboxylic acid], the tasting result in experiment [9] (setting [10]) is given as “Creamy, full body, more fatty chicken”.
Still for that read-out and setting: to `CC(C)=CCC/C(C)=C/C(=O)NC1(C(=O)O)CC1` [Geranoyl ACCA, N-geranoyl 1-amino-cyclopropyl carboxylic acid] belongs “Saltier Umami lingering Mouthfeel”.
As for `CCCCCCCCCCCCCCCC(=O)NCC(=O)O` [C16:0-gly], the tasting result in experiment [5] is reported as “sweet after taste juicy”.
Consider `CCCCCCCCCCCCCCCCCC(=O)NC(CC(=O)O)C(=O)O` (stereo not drawn) [C18:0-asp, N-stearoyl-Asp], for which the tasting result in experiment [1] (1 ppm) was “fatty, fruity, long lasting”; in experiment [4] (1 ppm) it was “lot off fullness and body, less salty”.
As to `CCCCCCCCCCCCCCCCCC(=O)NCCCC(=O)O` [C18:0-gaba], the tasting result is “juicy full, jammy” in experiment [6]; “mild creamy, fruity, juicy and long lasting” in experiment [2] (0.5 ppm).
Consider `CCCCCCCCCCCCCCCC(=O)N[C@@H](CC(C)C)C(=O)O` [C16:0-leu, N-palmitoyl-L-leucine], for which the tasting result in experiment [1] (2 ppm) was “very fruity, ripe mango taste, strawberry note”.
Turning to `CCCCCCCCCCCCCCCCCC(=O)NC(CCC(=O)O)C(=O)O` (stereo not drawn) [C18:0-glu, N-stearoyl-Glu], the tasting result was “fatty, full, sweet juicy” in [1] (1 ppm); “fruity, juicy, long lasting” in experiment [2] (0.5 ppm); “full, fatty, whipped cream like” in experiment [3].
For the compound `CCCCCC/C=C\CCCCCCCC(=O)NC(CC(C)C)C(=O)O` [C16:1 leu, N-palmitenoyl-L-leucine], the tasting result in experiment [7] is “Strong salty and rich”.
On to `CCCCC/C=C\C/C=C\CCCCCCCC(=O)N[C@@H](C)C(=O)O` [C18:2-ala, N-linoleoyl-L-alanine], for which the tasting result was “fatty, juicy, apple skin taste” in experiment [1] (1 ppm); “creamy, fruity, juicy, green, long lasting, strawberry” in experiment [2] (0.5 ppm); “enhanced sulfur note, powdery, soft peach skin like, authentic peach, slight raspberry note” in experiment [8].
With `CCCCC/C=C\C/C=C\CCCCCCCC(=O)NCC(=O)O` [C18:2-gly, N-linoleoyl-glycine], the tasting result in experiment [5] is “very juicy, salivating, authentic, long lasting and sweet aftertaste”.
As for `CCCCC/C=C\C/C=C\CCCCCCCC(=O)NCCC(=O)O` [C18:2-beta ala], the tasting result in experiment [1] (2 ppm) is on record as “full long lasting nice juicy, almost a bit salty”; in [4] (2 ppm) it was “salty, savoury, full”.
On to `CCCCCCCC/C=C\CCCCCCCC(=O)NC(CC(=O)O)C(=O)O` (stereo not drawn) [C18:1-asp], for which the tasting result is given as “juicy fruit like” in experiment [1] (1 ppm) and “not special” in experiment [4] (1 ppm).
On to `CCCCCCCCCCCCCCCC(=O)N1CCCC1C(=O)O` (stereo not drawn) [C16:0-pro, N-palmitoyl-Pro], for which the tasting result is “overripe, orange like, long lasting after taste” in [1] (1 ppm) and “more salty, full, darker, more meat-like” in experiment [4] (1 ppm).
Turning to `CCCCCCCC/C=C\CCCCCCCC(=O)NC(CCC(N)=O)C(=O)O` (stereo not drawn) [C18:1-gln], the tasting result is listed as “Juicy, nice, fatty aftertaste” in experiment [6] and “more juicy, creamy, fruity long lasting” in experiment [2] (0.5 ppm).
For the compound `CCCCCCCC/C=C\CCCCCCCC(=O)N[C@@H](CC(C)C)C(=O)O` [C18:1-leu, N-oleoyl-L-leucine], the tasting result in experiment [1] (2 ppm) is “very long lasting, ripe, fruity, juicy”.
Take `CCCCC/C=C\C/C=C\CCCCCCCC(=O)NC(CCSC)C(=O)O` (stereo not drawn) [C18:2-met, N-linoleoyl-Met]: the tasting result in experiment [1] (1 ppm) is recorded as “fresh nice juicy”; in experiment [4] (1 ppm), “salivating salty, umami”.
Regarding `CCCCC/C=C\C/C=C\CCCCCCCC(=O)NC(CO)C(=O)O` (stereo not drawn) [C18:2-ser, N-linoleoyl-Ser], the tasting result is “apple note, less acidic, juicy” in [1] (1 ppm); “more umami, slightly more salty, sweet” in experiment [4] (1 ppm); “very fresh, authentic, slightly less sweet, more juicy” in [5].
With `CCCCCCCCCCCCCCCC(=O)N[C@H](C(=O)O)C(C)C` [C16:0-val, N-palmitoyl-L-valine], the tasting result in [8] was “very juicy”.
For the compound `CCCCCCCCCCCCCCCCCC(=O)N[C@@H](CO)C(=O)O` [C18:0-ser, N-stearoyl-Ser], the tasting result in experiment [1] (1 ppm) is “nice sweet, pineapple, long lasting”; in experiment [4] (1 ppm) it was “more salty, richer, more umami”.

The values above are taken from US11091429B2, “Organic compounds” (Givaudan SA, priority 2012, dated 2021).
